ChEMBL document CHEMBL3886344, “Compounds of modulating TRPV3 function” (2015)

Experiment: Inhibition Assay: To determine whether compounds were selective for TRPV3 inhibition over inhibition of other ion channel types, the human ERG (hERG), NaV1.2, and TRPV1 (hTRPV1) channels and the rat TRPV6 (rTRPV6) channel were also stably transfected and expressed or induced to express in mammalian cell lines. The methods for measuring currents from these channels are well-established and have been described in numerous publications (See, Weerapura et al., 2002, J Physiology 540: 15-27; Rush et al., 2005, J Physiology 564: 808-815; Caterina et al., 1997, Nature 389: 816-824; Hoenderhop et al., 2001, J Physiology 537: 747-761; Clapham et al., 2003, Pharmacol Rev 55: 591-596).

In the case of `Cc1cccc2c1N(C(=O)CSc1ccc(Cl)cn1)CCC2`, the IC50 is reported as greater than 30 µM.
